Source: patent US10144706B2 (BRISTOL-MYERS SQUIBB COMPANY, priority 2016, dated 2018)
pIC50: −log10 of the molar value.

What follows are compounds tested against T1, PD-1/PD-L1 interaction (PD-1-Ig / PD-L1-His) (Homo sapiens, UniProt Q9NZQ7) (assay: PD-1/PD-L1 Homogenous Time-Resolved Fluorescence (HTRF) binding assay). Details: IC50 range class; PD-L1-His 10 nM, PD-1-Ig 20 nM; read-out: Range or IC50.
T1 construct: hPDL1(18-239)-TVMV-His; TVMV protease site linker (C); made in house; host or cells: HEK293T
T1 sequence (Q9NZQ7 with tags, fused parts or gaps): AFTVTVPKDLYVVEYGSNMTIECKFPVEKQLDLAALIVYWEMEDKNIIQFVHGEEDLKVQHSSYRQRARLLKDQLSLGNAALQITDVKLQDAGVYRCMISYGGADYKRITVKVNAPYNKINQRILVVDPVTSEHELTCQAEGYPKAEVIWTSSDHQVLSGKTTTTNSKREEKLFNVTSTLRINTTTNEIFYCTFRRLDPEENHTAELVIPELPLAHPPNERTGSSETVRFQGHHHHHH
Procedure, shortened: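 Human PD-L1-His (10 nM final) was pre-incubated with inhibitor for 15 min, then PD-1-Ig (20 nM final) was added for a further 15 min in dPBS with 0.1% BSA and 0.05% Tween-20. Binding was detected by HTRF using Eu-cryptate anti-Ig (1 nM) and APC anti-His (20 nM).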

SMILES	pIC50
Cc1c(COc2cc(OCc3ccc(-n4cccn4)nc3)c(CN(C)[C@H](C(=O)O)[C@@H](C)O)cc2Cl)cccc1-c1cccc(COc2cc(OCc3ccc(-n4cccn4)nc3)c(CN(C)[C@H](C(=O)O)[C@@H](C)O)cc2Cl)c1C [Example 5029, (2S,2′S,3R,3′R)-2,2′-((((((2,2′-dimethyl-[1,1′-biphenyl]-3,3′-diyl)bis(methylene))bis(oxy))bis(2-((6-(1H-pyrazol-1-yl)pyridin-3-yl)methoxy)-5-chloro-4,1-phenylene))bis(methylene))bis(methylazanediyl))bis(3-hydroxybutanoic acid)]	7.05 to 7.70
CC(CO)(NCc1cc(Cl)c(OCc2cccc(-c3cccc(COc4cc(OCc5cncc(C#N)c5)c(CNC(C)(CO)C(=O)O)cc4Cl)c3Cl)c2Cl)cc1OCc1cncc(C#N)c1)C(=O)O (centres unmarked) [Example 41200]	7.70 to 10.40
Cc1c(COc2cc(OCc3ccc(-n4cccn4)nc3)c(CN[C@@](C)(CO)C(=O)O)cc2Cl)cccc1-c1cccc(COc2cc(OCc3ccc(-n4cccn4)nc3)c(CN[C@@](C)(CO)C(=O)O)cc2Cl)c1C [Example 5022, (2S,2′S)-2,2′-((((((2,2′-dimethyl-[1,1′-biphenyl]-3,3′-diyl)bis(methylene))bis(oxy))bis(2-((6-(1H-pyrazol-1-yl)pyridin-3-yl)methoxy)-5-chloro-4,1-phenylene))bis(methylene))bis(azanediyl))bis(3-hydroxy-2-methylpropanoic acid)]	7.70 to 10.40
Cc1c(COc2cc(OCc3cncc(C#N)c3)c(CO)cc2Cl)cccc1-c1cccc(COc2cc(OCc3cncc(C#N)c3)c(CN[C@@H](C(=O)O)[C@@H](C)O)cc2Cl)c1C [Example 50190]	7.70 to 10.40
Cc1c(OCCCN(C)Cc2cccnc2)cccc1-c1cccc(OCCCN2CC[C@@H](O)C2)c1C [Example 2049, (R)-1-(3-((2,2′-dimethyl-3′-(3-(methyl(pyridin-3-ylmethyl)amino)propoxy)-[1,1′-biphenyl]-3-yl)oxy)propyl)pyrrolidin-3-ol]	6.00 to 7.05
C[C@](CO)(NCc1cc(Cl)c(OCc2cccc(-c3cccc(COc4cc(OCc5cncc(C#N)c5)c(CN[C@](C)(CO)C(=O)O)cc4Cl)c3Cl)c2Cl)cc1OCc1cncc(C#N)c1)C(=O)O [Example 41190]	7.70 to 10.40
Cc1c(OCCCNCCS(C)(=O)=O)cccc1-c1cccc(OCCCN2CC[C@@H](O)C2)c1C [Example 2010, (R)-1-(3-((2,2′-dimethyl-3′-(3-((2-(methylsulfonyl)ethyl)amino)propoxy)-[1,1′-biphenyl]-3-yl)oxy)propyl)pyrrolidin-3-ol]	7.05 to 7.70
Cc1c(OCCCN2CC[C@@H](O)C2)cccc1-c1cccc(OCCCc2ccccc2)c1 [Example 3027, (R)-1-(3-((2-methyl-3′-(3-phenylpropoxy)-[1,1′-biphenyl]-3-yl)oxy)propyl)pyrrolidin-3-ol]	5.00 to 6.00
Cc1c(COc2cc(OCc3cncc(C#N)c3)c(CO)cc2Cl)cccc1-c1cccc(COc2cc(OCc3cncc(C#N)c3)c(CN[C@@H](CCO)C(=O)O)cc2Cl)c1C [Example 50150]	7.70 to 10.40
Cc1c(COc2cc(OCc3cncc(C#N)c3)c(CO)cc2Cl)cccc1-c1cccc(COc2cc(OCc3cncc(C#N)c3)c(CNCC(O)CC(=O)O)cc2Cl)c1C (centres unmarked) [Example 50070]	7.70 to 10.40
COCCC(NCc1cc(Cl)c(OCc2cccc(-c3cccc(COc4cc(OCc5cncc(C#N)c5)c(CNC(CCOC)C(=O)O)cc4Cl)c3C)c2C)cc1OCc1cncc(C#N)c1)C(=O)O (centres unmarked) [Example 40780]	7.70 to 10.40
Cc1c(OCCCN2CC[C@@H](O)C2)cccc1-c1cccc(OCCCN2CC[C@@H](F)C2)c1C [Example 3035, (R)-1-(3-((3′-(3-((R)-3-fluoropyrrolidin-1-yl)propoxy)-2,2′-dimethyl-[1,1′-biphenyl]-3-yl)oxy)propyl)pyrrolidin-3-ol]	7.70 to 10.40
Cc1ccn(CCNCCCOc2cccc(-c3cccc(OCCCN4CC[C@@H](O)C4)c3C)c2C)n1 [Example 2009, (R)-1-(3-((2,2′-dimethyl-3′-(3-((2-(3-methyl-1H-pyrazol-1-yl)ethyl)amino)propoxy)-[1,1′-biphenyl]-3-yl)oxy)propyl)pyrrolidin-3-ol]	7.05 to 7.70
Cc1c(OCCCN(C)CCC(N)=O)cccc1-c1cccc(OCCCN(C)CCC(N)=O)c1C [Example 2076]	7.05 to 7.70
CC(=O)NC1CCN(CCCOc2cccc(-c3cccc(OCCCN4CC[C@@H](O)C4)c3C)c2C)C1 (stereo partly drawn) [Example 2107, N-(1-(3-((3′-(3-((R)-3-hydroxypyrrolidin-1-yl)propoxy)-2,2′-dimethyl-[1,1′-biphenyl]-3-yl)oxy)propyl)pyrrolidin-3-yl)acetamide]	7.05 to 7.70
Cc1c(OCCCN2CC[C@@H](O)C2)cccc1-c1cccc(OCCCN2CC[C@@H](O)C2)c1 [Example 3023, (3R,3′R)-1,1′-(((2-methyl-[1,1′-biphenyl]-3,3′-diyl)bis(oxy))bis(propane-3,1-diyl))bis(pyrrolidin-3-ol)]	6.00 to 7.05

SMILES	pIC50
Cc1c(COc2cc(OCc3ccc(-n4cccn4)nc3)c(CNC(CO)CO)cc2Cl)cccc1-c1cccc(COc2cc(OCc3ccc(-n4cccn4)nc3)c(CNC(CO)CO)cc2Cl)c1C [Example 5019, 2,2′-((((((2,2′-dimethyl-[1,1′-biphenyl]-3,3′-diyl)bis(methylene))bis(oxy))bis(2-((6-(1H-pyrazol-1-yl)pyridin-3-yl)methoxy)-5-chloro-4,1-phenylene))bis(methylene))bis(azanediyl))bis(propane-1,3-diol)]	7.05 to 7.70
CC(=O)c1cc(Cl)c(OCc2cccc(-c3cccc(COc4cc(OCc5cncc(C#N)c5)c(CN[C@](C)(CO)C(=O)O)cc4Cl)c3Cl)c2Cl)cc1OCc1cncc(C#N)c1 [Example 60040]	7.70 to 10.40
CC(=O)c1cc(Cl)c(OCc2cccc(-c3cccc(COc4cc(OCc5cncc(C#N)c5)c(CN[C@H](C(=O)O)[C@@H](C)[C@H](C)O)cc4Cl)c3C)c2C)cc1OCc1cncc(C#N)c1 [Example 60050]	7.70 to 10.40
Cc1c(COc2cc(OCc3cncc(C#N)c3)c(CN[C@@H](Cc3c[nH]c4ccccc34)C(=O)O)cc2Cl)cccc1-c1cccc(COc2cc(OCc3cncc(C#N)c3)c(CN[C@@H](Cc3c[nH]c4ccccc34)C(=O)O)cc2Cl)c1C [Example 40700]	7.70 to 10.40
Cc1c(OCCCNCCc2ccncc2)cccc1-c1cccc(OCCCNCCc2ccncc2)c1C [Example 2028, 3,3′-((2,2′-dimethyl-[1,1′-biphenyl]-3,3′-diyl)bis(oxy))bis(N-(2-(pyridin-4-yl)ethyl)propan-1-amine)]	7.70 to 10.40
Cc1c(COc2cc(OCc3cncc(C#N)c3)c(CO)cc2Cl)cccc1-c1cccc(COc2cc(OCc3cncc(C#N)c3)c(CNC(C(=O)O)C(=O)O)cc2Cl)c1C [Example 50220]	7.70 to 10.40
C[C@](CO)(NCc1cc(Cl)c(OCc2cccc(-c3cccc(COc4cc(OCc5cncc(C#N)c5)c(CN[C@@](C)(CO)C(=O)O)cc4Cl)c3)c2)cc1OCc1cncc(C#N)c1)C(=O)O [Example 40040]	7.70 to 10.40
Cc1c(OCCCN2CC[C@@H](O)C2)cccc1-c1cccc(OCC2CCCN(C)C2)c1C (stereo partly drawn) [Example 3029, (3R)-1-(3-((2,2′-dimethyl-3′-((1-methylpiperidin-3-yl)methoxy)-[1,1′-biphenyl]-3-yl)oxy)propyl)pyrrolidin-3-ol]	7.70 to 10.40
Cc1c(COc2cc(OCc3cncc(C#N)c3)c(CN[C@](C)(CO)C(=O)O)cc2Cl)cccc1-c1cccc(COc2cc(OCc3cncc(C#N)c3)c(CN[C@](C)(CO)C(=O)O)cc2Cl)c1C [Example 41210]	7.70 to 10.40
Cc1c(OCCCNC(CO)c2ccncc2)cccc1-c1cccc(OCCCN2CC[C@@H](O)C2)c1C (stereo partly drawn) [Example 2047, (3R)-1-(3-((3′-(3-((2-hydroxy-1-(pyridin-4-yl)ethyl)amino)propoxy)-2,2′-dimethyl-[1,1′-biphenyl]-3-yl)oxy)propyl)pyrrolidin-3-ol]	6.00 to 7.05
Cc1c(OCCCN2CCC(O)(C(=O)O)CC2)cccc1-c1cccc(OCCCN2CCC(O)(C(=O)O)CC2)c1Cl [Example 1002, 1,1′-(((2-chloro-2′-methyl-[1,1′-biphenyl]-3,3′-diyl)bis(oxy))bis(propane-3,1-diyl))bis(4-hydroxypiperidine-4-carboxylic acid)]	7.70 to 10.40
CCN(CC)C(=O)C1CCCN(CCCOc2cccc(-c3cccc(OCCCN4CC[C@@H](O)C4)c3C)c2C)C1 (mixture of isomers) [Example 2023, N,N-diethyl-1-(3-((3′-(3-((R)-3-hydroxypyrrolidin-1-yl)propoxy)-2,2′-dimethyl-[1,1′-biphenyl]-3-yl)oxy)propyl)piperidine-3-carboxamide]	7.05 to 7.70
N#Cc1cncc(COc2cc(OCc3cccc(-c4cccc(COc5cc(OCc6cncc(C#N)c6)c(C(=O)NCCCO)cc5Cl)c4Cl)c3Cl)c(Cl)cc2C(=O)NCCCO)c1 [Example 80020]	6.00 to 7.05
Cc1c(COc2cc(OCc3cncc(C#N)c3)c(Cl)cc2Cl)cccc1-c1cccc(COc2cc(OCc3cncc(C#N)c3)c(CNC(C)(CO)C(=O)O)cc2Cl)c1C (centres unmarked) [Example 70030]	7.05 to 7.70
Cc1c(COc2cc(OCc3cncc(C#N)c3)c(CO)cc2Cl)cccc1-c1cccc(COc2cc(OCc3cncc(C#N)c3)c(CN3CCCC[C@H]3C(=O)O)cc2Cl)c1C [Example 2120, (S)-1-(5-chloro-4-((3′-((2-chloro-5-((5-cyanopyridin-3-yl)methoxy)-4-(hydroxymethyl)phenoxy)methyl)-2,2′-dimethyl-[1,1′-biphenyl]-3-yl)methoxy)-2-((5-cyanopyridin-3-yl)methoxy)benzyl)piperidine-2-carboxylic acid]	7.70 to 10.40

Same assay, conditions: numeric IC50; PD-L1-His 10 nM, PD-1-Ig 20 nM; read-out: Range or IC50

SMILES	pIC50
Cc1c(OCCCN2CC(N(C)C)C2)cccc1-c1cccc(OCCCN2CC[C@@H](O)C2)c1C [Example 2002, (R)-1-(3-((3′-(3-(3-(dimethylamino)azetidin-1-yl)propoxy)-2,2′-dimethyl-[1,1′-biphenyl]-3-yl)oxy)propyl)pyrrolidin-3-ol]	7.00
